Source: US20240132484A1, “BROAD SPECTRUM ANTIVIRAL COMPOUNDS TARGETING THE SKI COMPLEX” (priority 2020, published 2024)
Several values for one entry are separate records, joined by “and”; a condition that tells them apart may be missing. Equal entries are not always repeated. Where two headings read alike, the source gives them in different places.

Key:
cells (nuclei count) = settings: for Relative cell count to DMSO controls, Average 1 μM / Relative cell count to DMSO controls, Average 5 μM / Relative cell count to DMSO controls, Average 10 μM / Relative cell count to DMSO controls, Average 25 μM / Relative cell count to DMSO controls, Average 50 μM: toxicity data, 100=DMSO control; for Toxicity Data, Average, Mean percentage relative to DMSO control: Average of Exp 1 (SMW491) and Exp 2 (SMW492); for Toxicity Data, Percentage Relative to Appropriate DMSO Control: single well; for Relative cell count to DMSO controls, Average (for correlation analysis): average value over the 5 tested concentrations (1 to 50 uM)
SARS2 = format: cell-based, SARS-CoV-2; settings: for Infection Data, Average, Mean percentage infection relative to DMSO control: Average of Exp 1 (SMW491) and Exp 2 (SMW492); for Infection Data, Percentage Infection Relative to Appropriate DMSO Control: single well, avg background subtraction; for Percentage Inhibition Average 1 μM / Screening data (Relative infection to DMSO controls) Average 1 μM: SARS2, 1 μM; for Screening data (Relative infection to DMSO controls) Average 1 μM / Screening data (Relative infection to DMSO controls) Average 5 μM / Screening data (Relative infection to DMSO controls) Average 10 μM / Screening data (Relative infection to DMSO controls) Average 25 μM / Screening data (Relative infection to DMSO controls) Average 50 μM / Average (relative infection to DMSO over the 5 tested concentrations): 100=DMSO control; for Percentage Inhibition Average 5 μM / Screening data (Relative infection to DMSO controls) Average 5 μM: SARS2, 5 μM; for Percentage Inhibition Average 10 μM / Screening data (Relative infection to DMSO controls) Average 10 μM: SARS2, 10 μM; for Percentage Inhibition Average 25 μM / Screening data (Relative infection to DMSO controls) Average 25 μM: SARS2, 25 μM; for Percentage Inhibition Average 50 μM / Screening data (Relative infection to DMSO controls) Average 50 μM: SARS2, 50 μM; for Average (relative infection to DMSO over the 5 tested concentrations): SARS2, average over 1 to 50 uM

## COc1ccc(CNCCc2ccccc2F)c(OCC(O)CN2CCN(C)CC2)c1 (centres unmarked) [SILCS46]
Cells (nuclei count)
  Relative cell count to DMSO controls, Average 1 μM: 103.33
  Relative cell count to DMSO controls, Average 5 μM: 131.17
  Relative cell count to DMSO controls, Average 10 μM: 126.44
  Relative cell count to DMSO controls, Average 25 μM: 117.77
  Relative cell count to DMSO controls, Average 50 μM: 107.72
  Relative cell count to DMSO controls, Average (for correlation analysis): 117.29
Cells (nuclei count); n=4, 1 uM
  Toxicity Data, Average, Mean percentage relative to DMSO control: 103.33%
Cells (nuclei count); n=4, 5 uM
  Toxicity Data, Average, Mean percentage relative to DMSO control: 131.17%
Cells (nuclei count); n=4, 10 uM
  Toxicity Data, Average, Mean percentage relative to DMSO control: 126.44%
Cells (nuclei count); n=4, 25 uM
  Toxicity Data, Average, Mean percentage relative to DMSO control: 117.77%
Cells (nuclei count); n=4, 50 uM
  Toxicity Data, Average, Mean percentage relative to DMSO control: 107.72%
Cells (nuclei count); Exp 1 (SMW491), 1 uM
  Toxicity Data, Percentage Relative to Appropriate DMSO Control: 87% and 86%
Cells (nuclei count); Exp 1 (SMW491), 5 uM
  Toxicity Data, Percentage Relative to Appropriate DMSO Control: 124% and 137%
Cells (nuclei count); Exp 1 (SMW491), 10 uM
  Toxicity Data, Percentage Relative to Appropriate DMSO Control: 126% and 116%
Cells (nuclei count); Exp 1 (SMW491), 25 uM
  Toxicity Data, Percentage Relative to Appropriate DMSO Control: 118% and 101%
Cells (nuclei count); Exp 1 (SMW491), 50 uM
  Toxicity Data, Percentage Relative to Appropriate DMSO Control: 84% and 108%
Cells (nuclei count); Exp 2 (SMW492), 1 uM
  Toxicity Data, Percentage Relative to Appropriate DMSO Control: 100% and 140%
Cells (nuclei count); Exp 2 (SMW492), 5 uM
  Toxicity Data, Percentage Relative to Appropriate DMSO Control: 120% and 143%
Cells (nuclei count); Exp 2 (SMW492), 10 uM
  Toxicity Data, Percentage Relative to Appropriate DMSO Control: 134% and 130%
Cells (nuclei count); Exp 2 (SMW492), 25 uM
  Toxicity Data, Percentage Relative to Appropriate DMSO Control: 117% and 135%
Cells (nuclei count); Exp 2 (SMW492), 50 uM
  Toxicity Data, Percentage Relative to Appropriate DMSO Control: 118% and 121%
SARS2
  SARS2 antiviral activity: lower activity
  Percentage Inhibition Average 1 μM: 27.88%
  Screening data (Relative infection to DMSO controls) Average 1 μM: 72.12
  Percentage Inhibition Average 5 μM: 99.23%
  Screening data (Relative infection to DMSO controls) Average 5 μM: 0.77
  Percentage Inhibition Average 10 μM: 78.36%
  Screening data (Relative infection to DMSO controls) Average 10 μM: 21.64
  Percentage Inhibition Average 25 μM: 99.97%
  Screening data (Relative infection to DMSO controls) Average 25 μM: 0.03
  Percentage Inhibition Average 50 μM: 99.16%
  Screening data (Relative infection to DMSO controls) Average 50 μM: 0.84
  Average (relative infection to DMSO over the 5 tested concentrations): 19.08
SARS2; n=4, 1 uM
  Infection Data, Average, Mean percentage infection relative to DMSO control: 72.12%
SARS2; n=4, 5 uM
  Infection Data, Average, Mean percentage infection relative to DMSO control: 0.77%
SARS2; n=4, 10 uM
  Infection Data, Average, Mean percentage infection relative to DMSO control: 21.64%
SARS2; n=4, 25 uM
  Infection Data, Average, Mean percentage infection relative to DMSO control: 0.03%
SARS2; n=4, 50 uM
  Infection Data, Average, Mean percentage infection relative to DMSO control: 0.84%
SARS2; Exp 1 (SMW491), 1 uM
  Infection Data, Percentage Infection Relative to Appropriate DMSO Control: 73.61% and 132.86%
SARS2; Exp 1 (SMW491), 5 uM
  Infection Data, Percentage Infection Relative to Appropriate DMSO Control: −0.70% and 0.86%
SARS2; Exp 1 (SMW491), 10 uM
  Infection Data, Percentage Infection Relative to Appropriate DMSO Control: −2.65% and −0.77%
SARS2; Exp 1 (SMW491), 25 uM
  Infection Data, Percentage Infection Relative to Appropriate DMSO Control: −3.35% and 0.11%
SARS2; Exp 1 (SMW491), 50 uM
  Infection Data, Percentage Infection Relative to Appropriate DMSO Control: 2.55% and −4.15%
SARS2; Exp 2 (SMW492), 1 uM
  Infection Data, Percentage Infection Relative to Appropriate DMSO Control: 49.01% and 32.97%
SARS2; Exp 2 (SMW492), 5 uM
  Infection Data, Percentage Infection Relative to Appropriate DMSO Control: 0.99% and 1.92%
SARS2; Exp 2 (SMW492), 10 uM
  Infection Data, Percentage Infection Relative to Appropriate DMSO Control: 47.59% and 42.39%
SARS2; Exp 2 (SMW492), 25 uM
  Infection Data, Percentage Infection Relative to Appropriate DMSO Control: 0.98% and 2.39%
SARS2; Exp 2 (SMW492), 50 uM
  Infection Data, Percentage Infection Relative to Appropriate DMSO Control: 3.90% and 1.08%

## COc1ccc(C2NC(=O)NC(C)=C2C(=O)NCc2ccccc2)cc1OC (centres unmarked) [SILCS48]
Cells (nuclei count)
  Relative cell count to DMSO controls, Average 1 μM: 119.19
  Relative cell count to DMSO controls, Average 5 μM: 115.84
  Relative cell count to DMSO controls, Average 10 μM: 107.43
  Relative cell count to DMSO controls, Average 25 μM: 102.04
  Relative cell count to DMSO controls, Average 50 μM: 77.81
  Relative cell count to DMSO controls, Average (for correlation analysis): 104.46
Cells (nuclei count); n=4, 1 uM
  Toxicity Data, Average, Mean percentage relative to DMSO control: 119.19%
Cells (nuclei count); n=4, 5 uM
  Toxicity Data, Average, Mean percentage relative to DMSO control: 115.84%
Cells (nuclei count); n=4, 10 uM
  Toxicity Data, Average, Mean percentage relative to DMSO control: 107.43%
Cells (nuclei count); n=4, 25 uM
  Toxicity Data, Average, Mean percentage relative to DMSO control: 102.04%
Cells (nuclei count); n=4, 50 uM
  Toxicity Data, Average, Mean percentage relative to DMSO control: 77.81%
Cells (nuclei count); Exp 1 (SMW491), 1 uM
  Toxicity Data, Percentage Relative to Appropriate DMSO Control: 112% and 102%
Cells (nuclei count); Exp 1 (SMW491), 5 uM
  Toxicity Data, Percentage Relative to Appropriate DMSO Control: 108% and 106%
Cells (nuclei count); Exp 1 (SMW491), 10 uM
  Toxicity Data, Percentage Relative to Appropriate DMSO Control: 86% and 88%
Cells (nuclei count); Exp 1 (SMW491), 25 uM
  Toxicity Data, Percentage Relative to Appropriate DMSO Control: 95% and 88%
Cells (nuclei count); Exp 1 (SMW491), 50 uM
  Toxicity Data, Percentage Relative to Appropriate DMSO Control: 79% and 77%
Cells (nuclei count); Exp 2 (SMW492), 1 uM
  Toxicity Data, Percentage Relative to Appropriate DMSO Control: 130% and 132%
Cells (nuclei count); Exp 2 (SMW492), 5 uM
  Toxicity Data, Percentage Relative to Appropriate DMSO Control: 115% and 135%
Cells (nuclei count); Exp 2 (SMW492), 10 uM
  Toxicity Data, Percentage Relative to Appropriate DMSO Control: 135% and 121%
Cells (nuclei count); Exp 2 (SMW492), 25 uM
  Toxicity Data, Percentage Relative to Appropriate DMSO Control: 109% and 116%
Cells (nuclei count); Exp 2 (SMW492), 50 uM
  Toxicity Data, Percentage Relative to Appropriate DMSO Control: 81% and 75%
SARS2; n=4, 1 uM
  Infection Data, Average, Mean percentage infection relative to DMSO control: 71.69%
SARS2; n=4, 5 uM
  Infection Data, Average, Mean percentage infection relative to DMSO control: 75.19%
SARS2; n=4, 10 uM
  Infection Data, Average, Mean percentage infection relative to DMSO control: 85.09%
SARS2; n=4, 25 uM
  Infection Data, Average, Mean percentage infection relative to DMSO control: 100.34%
SARS2; n=4, 50 uM
  Infection Data, Average, Mean percentage infection relative to DMSO control: 160.04%
SARS2; Exp 1 (SMW491), 1 uM
  Infection Data, Percentage Infection Relative to Appropriate DMSO Control: 87.03% and 82.70%
SARS2; Exp 1 (SMW491), 5 uM
  Infection Data, Percentage Infection Relative to Appropriate DMSO Control: 70.35% and 83.94%
SARS2; Exp 1 (SMW491), 10 uM
  Infection Data, Percentage Infection Relative to Appropriate DMSO Control: 96.64% and 110.53%
SARS2; Exp 1 (SMW491), 25 uM
  Infection Data, Percentage Infection Relative to Appropriate DMSO Control: 102.87% and 119.89%
SARS2; Exp 1 (SMW491), 50 uM
  Infection Data, Percentage Infection Relative to Appropriate DMSO Control: 159.63% and 145.37%
SARS2; Exp 2 (SMW492), 1 uM
  Infection Data, Percentage Infection Relative to Appropriate DMSO Control: 59.24% and 57.80%
SARS2; Exp 2 (SMW492), 5 uM
  Infection Data, Percentage Infection Relative to Appropriate DMSO Control: 84.51% and 61.96%
SARS2; Exp 2 (SMW492), 10 uM
  Infection Data, Percentage Infection Relative to Appropriate DMSO Control: 49.42% and 83.79%
SARS2; Exp 2 (SMW492), 25 uM
  Infection Data, Percentage Infection Relative to Appropriate DMSO Control: 97.57% and 81.03%
SARS2; Exp 2 (SMW492), 50 uM
  Infection Data, Percentage Infection Relative to Appropriate DMSO Control: 177.82% and 157.32%
SARS2
  Percentage Inhibition Average 1 μM: 28.31%
  Screening data (Relative infection to DMSO controls) Average 1 μM: 71.69
  Percentage Inhibition Average 5 μM: 24.81%
  Screening data (Relative infection to DMSO controls) Average 5 μM: 75.19
  Percentage Inhibition Average 10 μM: 14.91%
  Screening data (Relative infection to DMSO controls) Average 10 μM: 85.09
  Percentage Inhibition Average 25 μM: −0.34%
  Screening data (Relative infection to DMSO controls) Average 25 μM: 100.34
  Percentage Inhibition Average 50 μM: −60.04%
  Screening data (Relative infection to DMSO controls) Average 50 μM: 160.04
  Average (relative infection to DMSO over the 5 tested concentrations): 98.47
